From patent publication US20240156764A1, “INHIBITION OF URACIL DNA GLYCOSYLASE IN THE OPEN CONFORMATION” (CASE WESTERN RESERVE UNIVERSITY, priority 2022, published 2024)

How the values were obtained:
human OGG1 protein = molecular target: T1, human OGG1 protein (Homo sapiens, UniProt O15527); assay: Gel-based DNA cleavage assay with a single oxoG:C basepair; assay type: biochemical
T1 construct: purchased NEBiolabs (New England Biolabs)
Procedure: 20% polyacrylamide nucleic acid urea gel electrophoresis was used to resolve the DNA bands at room temperature, 200 v for 50 min. Analysis and quantification of DNA cleavage were done as follows. A background subtraction step was included using the 23mer from the DNA only lane. […] B: Points on the plot were averaged from four different gels. The IC50 value was generated using Prism software version 8.4.3, non-linear fit, [inhibitor] vs. response (three parameters, R2=0.99) averaging points from four different gels. Y error bars represent the standard deviation from the mean. […] A single oxo-guanine: cytosine base pair DNA with a Cy3 fluorescent tag on the 3′ end was used (10 nM). D: The IC50 value was generated using Prism software version 8.4.3, non-linear fit, [inhibitor] vs. response (three parameters, R2=0.98) averaging points from three different gels.
Following pre-incubation occurred for 20 min at 37° C., 2 μL of U:A DNA (500 nM stock) was added to initiate the reaction, total reaction volume of 50 μL/well. Each plate was incubated for 120 min at 37° C. […] Gel data were analyzed using ImageJ software. […] Percent cleavage was calculated by using fluorescence intensity of the cleaved 23-mer DNA strand divided by the sum of the fluorescence bands (23mer+40mer DNA strands)*100. […]

[1] = system: uracil removal in wild type HAP cells; assay: Host-cell reactivation assay, uracil removal, wild type HAP cells; assay type: cell-based, human; settings: ATA 5.0 μM
Procedure: A: MCF-7 cells were seeded at 50,000 cells per well in a 12-well plate. B: HAP cells (wild type or UNG gene knockout) were seeded at 75,000 cells per well in a 6-well plate. […] After 24 hours, cells were dissociated by trypsinization and analyzed by flow cytometry using an Atune NxT flow cytometer. Gating and compensation were determined by transfection of single-color controls. Reporter expression was calculated for each dose of ATA as previously described in publications and normalized to DMSO treatment.
Removal of uracil in cells was measured using a reporter plasmid containing a dU:dG base pair (referred to as BFP_U), as described previously. […] The reciprocal of BFP_U reporter expression was calculated for each experimental condition. […] This creates a premature stop codon, completely abolishing fluorescence. Removal of thymidine followed by insertion of dC opposite dG restores reporter fluorescence.
Human breast cancer MCF-7 cells were seeded at 50,000 cells per well in a 12-well plate, while HAP cells (wild type or UNG knockout) were seeded at 75,000 cells per well in a 6-well plate. […] After 24 hours, cells were dissociated by trypsinization and analyzed by flow cytometry using an Atune NxT flow cytometer. Gating and compensation were determined by transfection of single-color controls. […]

T1 sequence (O15527 whole entry): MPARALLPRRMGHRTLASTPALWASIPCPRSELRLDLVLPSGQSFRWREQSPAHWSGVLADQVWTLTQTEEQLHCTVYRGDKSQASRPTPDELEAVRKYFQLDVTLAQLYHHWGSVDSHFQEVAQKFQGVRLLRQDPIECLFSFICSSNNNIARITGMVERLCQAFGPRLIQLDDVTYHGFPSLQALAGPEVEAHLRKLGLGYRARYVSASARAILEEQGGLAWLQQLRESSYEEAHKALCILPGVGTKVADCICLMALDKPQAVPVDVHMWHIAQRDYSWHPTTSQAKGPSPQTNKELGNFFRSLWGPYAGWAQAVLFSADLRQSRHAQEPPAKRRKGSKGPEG

## O=C(O)C1=CC(=C(c2ccc(O)c(C(=O)O)c2)c2ccc(O)c(C(=O)O)c2)C=CC1=O [ATA, aurintricarboxylic acid]
Human OGG1 protein; OGG1 10 nM, compared with UDG
  inhibitory effect on purified human OGG1: lesser inhibitory effect
Human OGG1 protein; dsDNA with single 8oxoG:C bp, gel-based
  IC50: 4.5 µM
[1]
  reduction of uracil removal in wild type cells: 1.8 fold
  share of the effect of UDG knockout: 60%
